Laboratory results published in patent publication US8772504B2, “Substituted benzoxazole, benzimidazole, oxazolopyridine and imidazopyridine derivatives as gamma secretase modulators” (Janssen Pharmaceuticals, Inc., priority 2009, dated 2014).

Legend:
Aβ42 [1] = experiment: Screening for γ-secretase-modulating activity, Method 1: Aβ42 sandwich ELISA on SKNBE2 cell media; assay type: cell-based; settings: Homo sapiens, SKNBE2 cells carrying APP 695 wild type
Method in brief: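 SKNBE2 cells expressing wild-type APP695 were treated with compound for 18 h in Ultraculture/1% glutamine. Secreted Aβ42 was quantified by sandwich ELISA (C-terminal capture, biotinylated 3D6, TMB, 450 nm), with WST-1 used as a toxicity check. IC50 was derived from 4-parameter fits of % inhibition or % of untreated control.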

Aβtotal [2] = experiment: Screening for γ-secretase-modulating activity, Method 1: Aβtotal sandwich ELISA on SKNBE2 cell media; assay type: cell-based; settings: Homo sapiens, SKNBE2 cells carrying APP 695 wild type
Method in brief: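 SKNBE2 cells expressing wild-type APP 695 were treated with compound for 18 hours. Aβtotal in the medium was measured by sandwich ELISA (6E10 capture, biotinylated 4G8 detection, fluorogenic peroxidase read-out). IC50 came from a 4-parameter fit of % inhibition with top/bottom fixed at 100/0 and Hill slope 1, or as averaged IC50 from % of untreated control.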

Aβ42 [3] = experiment: In vivo efficacy Method 1: brain soluble Aβ42 by ELISA; parameters: species or system mouse; settings: Table 4a, single oral dose, overnight fasted animals, sacrificed after 4 h, soluble fraction of brain homogenates
Source text: (§1) To determine whether acute administration of an Aβ42 lowering agent would reduce Aβ42 levels in vivo, non-transgenic rodents, e.g. mice or rats were used. Alternatively, two to three month old Tg2576 mice expressing APP695 containing the “Swedish” variant can be used or a transgenic mouse model developed by Dr. Fred Van Leuven (K.U. Leuven, Belgium) and co-workers, with neuron-specific expression of a clinical mutant of the human amyloid precursor protein [V717I] […] Young transgenic mice have high levels of Aβ in the brain but no detectable Aβ deposition. At approximately 6-8 months of age, the transgenic mice start to display spontaneous, progressive accumulation of β-amyloid (Aβ) in the brain, eventually resulting in amyloid plaques within the subiculum, hippocampus and cortex. Animals treated with the Aβ42 lowering agent were examined and compared to those untreated or treated with vehicle and brain levels of soluble Aβ42 and total Aβ would be quantitated by standard techniques, for example, using ELISA.
(§2) A typical protocol for measuring Aβ42 lowering in vivo is shown but it is only one of many variations that could be used to optimize the levels of detectable Aβ. For example, Aβ42 lowering compounds were formulated in 20% of Captisol® (a sulfobutyl ether of β-cyclodextrin) in water or 20% hydroxypropyl β cyclodextrin. The Aβ42 lowering agents were administered as a single oral dose or by any acceptable route of administration to overnight fasted animals. After 4 h, the animals were sacrificed and Aβ42 levels were analysed.
(§3) Blood was collected by decapitation and exsanguinations in EDTA-treated collection tubes. Blood was centrifuged at 1900 g for 10 minutes (min) at 4° C. and the plasma recovered and flash frozen for later analysis. The brain was removed from the cranium and hindbrain. The cerebellum was removed and the left and right hemisphere were separated. The left hemisphere was stored at −18° C. for quantitative analysis of test compound levels. The right hemisphere was rinsed with phosphate-buffered saline (PBS) buffer and immediately frozen on dry ice and stored at −80° C. until homogenization for biochemical assays.
(§4) All samples were sonicated for 30 seconds on ice at 20% power output (pulse mode). Homogenates were centrifuged at 221.300×g for 50 min. The resulting high speed supernatants were then transferred to fresh tubes and were optionally further purified before the next step. A portion of the supernatant was neutralized with 10% 0.5 M Tris-HCl and this was used to quantify Aβtotal.
(§5) The obtained supernatants were purified with Water Oasis HLB reverse phase columns (Waters Corp., Milford, Mass.) to remove non-specific immunoreactive material from the brain lysates prior subsequent Aβ detection. Using a vacuum manifold, all solutions were passed through the columns at a rate of approximately 1 ml per min, so the vacuum pressure was adjusted accordingly throughout the procedure. Columns were preconditioned with 1 ml of 100% MeOH, before equilibration with 1 ml of H2O, Non-neutralized brain lysates were loaded onto the columns. The loaded samples were then washed twice with the first wash performed with 1 ml of 5% MeOH, and the second wash with 1 ml of 30% MeOH. Finally, the Aβ was eluted from the columns and into 100×30 mm glass tubes, with a solution of 90% MeOH with 2% NH4OH. The eluate was then transferred into 1.5 ml tubes and concentrated in a speed-vac concentrator on high heat for about 1.5-2 h at 70° C. The concentrated Aβ was then resuspended in UltraCULTURE General Purpose Serum-Free Medium (Cambrex Corp., Walkersville, Md.) plus Protease Inhibitors added.
To quantify the amount of Aβ42 in the soluble fraction of the brain homogenates, commercially available Enzyme-Linked-Immunosorbent-Assay (ELISA) kits were used (e.g. Innotest® β-Amyloid(1-42), Innogenetics N.V., Ghent, Belgium). The Aβ42 ELISA was performed using the plate provided with the kit only.

Aβtotal [4] = experiment: In vivo efficacy Method 1: brain soluble Aβtotal by ELISA; parameters: species or system mouse; settings: Table 4a, single oral dose, overnight fasted animals, sacrificed after 4 h, soluble fraction of brain homogenates
Source text: as §1, §2, §3, §4
as §5, with “added. […]” for “added.”

Aβ42 [5] = experiment: Screening for γ-secretase-modulating activity, Method 2: Aβ42 Alphalisa on SKNBE2 cell supernatant; assay type: cell-based; settings: Method 2, Table 3c, SKNBE2 cells carrying APP 695 wild type, overnight incubation
Method in brief: (§6)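 SKNBE2 cells expressing wild-type APP695, plated at 10^4 cells/well with compound at several concentrations and incubated overnight at 37° C. Aβ42 (C-terminal capture, N-terminal biotinylated detection) and Aβtotal (N-terminal/4G8 pair) measured in supernatant by AlphaLISA. IC50 from 4-parameter fit of percent of compound-free control.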

Aβtotal [6] = experiment: Screening for γ-secretase-modulating activity, Method 2: Aβtotal Alphalisa on SKNBE2 cell supernatant; assay type: cell-based; settings: Method 2, Table 3c, SKNBE2 cells carrying APP 695 wild type, overnight incubation
Method in brief: as §6

Aβ42 [7] = experiment: In vivo efficacy Method 2: brain soluble Aβ42 by ELISA; parameters: species or system mouse; settings: Table 4b, single oral dose, overnight fasted non-transgenic animals, sacrificed after 4 h, soluble fraction of brain homogenates
Source text: (§7) To determine whether acute administration of an Aβ42 lowering agent would reduce Aβ42 levels in vivo, non-transgenic rodents, e.g. mice or rats were used. Animals treated with the Aβ42 lowering agent were examined and compared to those untreated or treated with vehicle and brain levels of soluble Aβ42 and total Aβ were quantitated by standard techniques, for example, using ELISA. Treatment periods varied from hours (h) to days and were adjusted based on the results of the Aβ42 lowering once a time course of onset of effect could be established.
as §2, §3
(§8) Mouse brains from non-transgenic animals were resuspended in 8 volumes of 0.4% DEA (diethylamine)/50 mM NaCl containing protease inhibitors (Roche-11873580001 or 04693159001) per gram of tissue, e.g. for 0.158 g brain, add 1.264 ml of 0.4% DEA. All samples were homogenized in the FastPrep-24 system (MP Biomedicals) using lysing matrix D (MPBio #6913-100) at 6 m/s for 20 seconds. Homogenates were centrifuged at 221.300×g for 50 min. The resulting high speed supernatants were then transferred to fresh eppendorf tubes. Nine parts of supernatant were neutralized with 1 part 0.5 M Tris-HCl pH 6.8 and used to quantify Aβtotal and Aβ42.
(§9) To quantify the amount of Aβtotal and Aβ42 in the soluble fraction of the brain homogenates, Enzyme-Linked-Immunosorbent-Assays were used . Briefly, the standards (a dilution of synthetic Aβ1-40 and Aβ1-42, Bachem) were prepared in 1.5 ml Eppendorf tube in Ultraculture, with final concentrations ranging from 10000 to 0.3 pg/ml. The samples and standards were co-incubated with HRPO-labelled N-terminal antibody for Aβ42 detection and with the biotinylated mid-domain antibody 4G8 for Aβtotal detection. 50 μl of conjugate/sample or conjugate/standards mixtures were then added to the antibody-coated plate (the capture antibodies selectively recognize the C-terminal end of Aβ42, antibody JRF/cAβ42/26, for Aβ42 detection and the N-terminus of Aβ, antibody JRF/rAβ/2, for Aβtotal detection). The plate was allowed to incubate overnight at 4° C. in order to allow formation of the antibody-amyloid complex. Following this incubation and subsequent wash steps the ELISA for Aβ42 quantification was finished by addition of Quanta Blu fluorogenic peroxidase substrate according to the manufacturer's instructions (Pierce Corp., Rockford, Ill.). A reading was performed after 10 to 15 min (excitation 320/emission 420).
In this model at least 20% Aβ42 lowering compared to untreated animals would be advantageous.

Aβtotal [8] = experiment: In vivo efficacy Method 2: brain soluble Aβtotal by ELISA; parameters: species or system mouse; settings: Table 4b, single oral dose, overnight fasted non-transgenic animals, sacrificed after 4 h, soluble fraction of brain homogenates
Source text: as §7, §2, §3, §8, §9
For Aβtotal detection, a Streptavidine-Peroxidase-Conjugate was added, followed 60 min later by an additional wash step and addition of Quanta Blu fluorogenic peroxidase substrate according to the manufacturer's instructions (Pierce Corp., Rockford, Ill.). A reading was performed after 10 to 15 min (excitation 320 nm/emission 420 nm).

[9] = Table 3a, 18 hours, XLfit, top/bottom fixed to 100 and 0, hill slope 1
[10] = Table 3b, non-linear regression of % of control, averaged IC50 values

Row | IC50 (Aβ42 [1]; [9]) [nM] | IC50 (Aβ42 [1]; [10]) [nM] | IC50 (Aβtotal [2]; [9]) [nM] | IC50 (Aβtotal [2]; [10]) [nM] | melting point [°C] | IC50 (Aβ42 [5]; Homo sapiens) [nM] | IC50 (Aβtotal [6]; Homo sapiens) [nM] | SMILES | other results
1 | 29 | 28 | > 1000 | > 3000 | 201.7 |  |  | Cc1cn(-c2ncc(Nc3cccc4c3nc(-c3ccc(F)cc3)n4C)cn2)cn1 [Compound 6] | Aβ42 (% Ctrl) _Mean (Aβ42 [3]): 66 % Ctrl; Aβtotal (% Ctrl) _Mean (Aβtotal [4]): 91 % Ctrl
2 | 84 | 76 | > 3000 | > 3000 | 81.2 |  |  | COc1cc(Nc2cccc3c2nc(N2CCC(F)(F)CC2)n3C)ccc1-n1cnc(C)c1 [Compound 12] | 
3 |  |  |  |  | 172.3 | 4 | 4790 | COc1nc(Nc2cc(C(C)C)nc3c2nc(-c2ccc(F)cc2)n3C)ccc1-n1cnc(C)c1 [Compound 111] | 
4 |  |  |  |  | 257.2 | 79 | > 10000 | CC(=O)Nc1cccc(-c2nc3c(Nc4ccc(-n5cnc(C)c5)c(F)c4)nc(C)cc3n2C)c1 [Compound 141] | 
5 |  |  |  |  |  |  |  | COc1cc(Nc2ccc(-n3cnc(C)c3)c(OC)n2)c2nc(-c3ccc(F)cc3)n(C)c2n1 [Compound 202] | IC50 (Aβ42 [5]): 5 nM; IC50 (Aβtotal [6]): > 10000 nM; Aβ42 (% Ctrl) _Mean (Aβ42 [7]): 82 % Ctrl; Aβtotal (% Ctrl) _Mean (Aβtotal [8]): 102 % Ctrl
